Results published in patent publication US6649626B1, “N-substituted 1-(lactone) isoquinolones for treating nervous disorders” (Centre National de la Recherche Scientifique (CNRS), priority 1999, dated 2003).

Experiments:
[1] = target: T1, α1β2γ2 subtype of the GABA receptor (Rattus norvegicus, UniProt P18508+P62813+P63138); assay: Electrophysiology: modulation of GABA currents in Xenopus oocytes expressing recombinant GABA-A receptors; assay type: cell-based; settings: for % stimulation of the GABA currents / % stimulation of the GABA currents (100 μM): α1β2γ2 in oocytes; for % stimulation of the GABA currents (100 μM): 100 μM compound with GABA
T1 construct: expressed in transfected cells; host or cells: Xenopus laevis oocytes (cRNA injection)

[2] = target: T2, benzodiazepine-binding site of the GABA-A receptor (Rattus norvegicus, UniProt P18508+P62813); assay: Displacement of tritiated flunitrazepam from brain membranes; settings: for inhibition at 100 µM: read-out: Inhibition of the tritiated ligands % Flu (100 μM)
T2 construct: IC50 Flu / BZ receptor; other: cerebellum (ce); other: cerebellum (ce; BZ1 subtype); other: 10 μM; cerebellum; other: 100 μM; other: 0.5 μM

[3] = test system: picrotoxin-binding site of the GABA-A receptor; assay: Displacement of 35S-TBPS from brain membranes; set-up: species or system rats
[4] = test system: GABA-binding site of the GABA-A receptor; assay: Displacement of tritiated muscimol from brain membranes; settings: for Muscimol: stimulation: stimulation instead of displacement
[5] = test system: benzodiazepine-binding site of the GABA-A receptor; assay: Displacement of tritiated flunitrazepam from brain membranes; settings: 0.5 μM; tissue not stated
[6] = test system: Ro15-4513 binding (GABA-A receptor); assay: Ro15-4513 displacement; settings: 100 μM

T2 sequence (P62813 28-455): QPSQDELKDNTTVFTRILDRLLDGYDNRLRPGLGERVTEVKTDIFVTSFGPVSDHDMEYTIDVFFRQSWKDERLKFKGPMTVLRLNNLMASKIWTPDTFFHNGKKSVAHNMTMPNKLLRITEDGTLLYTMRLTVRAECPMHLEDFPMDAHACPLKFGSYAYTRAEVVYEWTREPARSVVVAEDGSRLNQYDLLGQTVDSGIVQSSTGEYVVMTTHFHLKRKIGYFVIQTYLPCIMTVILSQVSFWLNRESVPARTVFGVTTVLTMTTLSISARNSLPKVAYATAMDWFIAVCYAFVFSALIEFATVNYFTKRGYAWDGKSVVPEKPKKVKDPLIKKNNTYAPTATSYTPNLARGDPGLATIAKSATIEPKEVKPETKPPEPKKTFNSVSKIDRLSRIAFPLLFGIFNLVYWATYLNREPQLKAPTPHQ
T2 sequence (P18508 39-466): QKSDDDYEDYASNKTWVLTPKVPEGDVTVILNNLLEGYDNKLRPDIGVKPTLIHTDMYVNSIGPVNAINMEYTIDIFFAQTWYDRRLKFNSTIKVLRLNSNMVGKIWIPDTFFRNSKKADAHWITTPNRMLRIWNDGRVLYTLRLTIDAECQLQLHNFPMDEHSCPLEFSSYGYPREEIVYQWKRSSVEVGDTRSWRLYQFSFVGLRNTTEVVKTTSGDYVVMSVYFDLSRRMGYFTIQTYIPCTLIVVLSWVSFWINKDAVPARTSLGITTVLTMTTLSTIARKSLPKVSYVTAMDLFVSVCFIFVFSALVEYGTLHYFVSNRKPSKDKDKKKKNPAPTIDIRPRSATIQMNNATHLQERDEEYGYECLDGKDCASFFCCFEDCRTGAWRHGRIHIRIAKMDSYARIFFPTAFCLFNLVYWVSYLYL
T2 sequence (P63138 26-474 partner): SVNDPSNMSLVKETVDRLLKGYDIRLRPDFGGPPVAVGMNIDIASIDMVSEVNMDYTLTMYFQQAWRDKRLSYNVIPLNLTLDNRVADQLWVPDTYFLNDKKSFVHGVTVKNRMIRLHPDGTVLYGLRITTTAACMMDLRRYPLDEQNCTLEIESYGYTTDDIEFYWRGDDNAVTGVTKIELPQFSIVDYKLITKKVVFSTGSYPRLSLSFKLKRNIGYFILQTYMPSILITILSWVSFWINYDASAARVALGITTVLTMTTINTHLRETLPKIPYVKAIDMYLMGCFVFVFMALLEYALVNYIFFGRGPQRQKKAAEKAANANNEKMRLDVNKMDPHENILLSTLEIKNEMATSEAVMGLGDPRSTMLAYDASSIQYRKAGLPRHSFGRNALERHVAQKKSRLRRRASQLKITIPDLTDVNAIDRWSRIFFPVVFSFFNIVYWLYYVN
T1 sequence (P62813 28-455): as the sequence (P62813 28-455) above
T1 sequence (P63138 25-474 limits assumed): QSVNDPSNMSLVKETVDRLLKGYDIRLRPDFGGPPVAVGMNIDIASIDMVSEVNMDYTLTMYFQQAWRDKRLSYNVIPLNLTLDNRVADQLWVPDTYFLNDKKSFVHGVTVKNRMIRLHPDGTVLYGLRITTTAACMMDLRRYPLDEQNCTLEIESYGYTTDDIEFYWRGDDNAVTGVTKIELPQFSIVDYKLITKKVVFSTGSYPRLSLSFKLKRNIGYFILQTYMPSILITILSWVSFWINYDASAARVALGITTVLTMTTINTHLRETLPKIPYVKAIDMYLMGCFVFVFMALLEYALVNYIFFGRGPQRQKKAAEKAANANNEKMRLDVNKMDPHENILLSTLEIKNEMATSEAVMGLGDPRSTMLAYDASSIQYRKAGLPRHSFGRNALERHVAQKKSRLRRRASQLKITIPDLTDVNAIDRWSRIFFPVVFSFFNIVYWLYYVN
T1 sequence (P18508 39-466): as the sequence (P18508 39-466) above

`COc1cc2c(cc1OC)[C@H]([C@@H]1CCC(=O)O1)N(C(=O)OCc1ccccc1)CC2` (racemic) [Compound 49] was tested, and the “% stimulation of the GABA currents” value ([1]; 0.1 μM compound) was 0%, the “% stimulation of the GABA currents (100 μM)” value (“% stimulation … (100 μM)” for short) [1] was “+67 ± 9%” and the “Inhibition of the tritiated ligands % Flu (100 μM)” value ([2]; tissue not stated) was 30%. For the same compound, the “Inhibition of the tritiated ligands % TBPS” value ([3]; 10 μM) was 0% and the Displacement of muscimol ([4]; 100 μM) was 100 μM = 0%.
In the case of `O=C1C=CC(C2c3ccccc3CCN2C(=O)OCc2ccccc2)O1` (racemic) [Compound 51], the “% stimulation of the GABA currents” value ([1]; 0.1 μM compound) is reported as 0%, the “% stimulation … (100 μM)” value [1] is reported as “+225 ± 68%” and the “Inhibition of the tritiated ligands % Flu” value ([2]; 0.5 μM, tissue not stated) is reported as 0%. For the same compound, the “Inhibition of the tritiated ligands % Flu” value ([2]; 10 μM, tissue not stated) was 50%, the “Inhibition of the tritiated ligands % Flu (100 μM)” value ([2]; tissue not stated) was 85% and the “Inhibition of the tritiated ligands % TBPS” value ([3]; 0.5 μM) was 0%. The “Inhibition of the tritiated ligands % TBPS” value ([3]; 10 μM) was 20% and the Displacement of muscimol ([4]; 100 μM) was 100 μM = 0%.
`O=C1C=CC(C2c3ccccc3CCN2C(=O)Oc2ccccc2)O1` (racemic) [Compound 57] was tested, and the “% stimulation of the GABA currents” value ([1]; 0.1 μM compound) was 0%, the “% stimulation … (100 μM)” value [1] was “+175 ± 13%” and the “Inhibition of the tritiated ligands % Flu” value ([2]; 0.5 μM, cerebellum) was 35%. The “Inhibition of the tritiated ligands % Flu” value ([2]; 0.5 μM, cortex) was 25%, the “Inhibition of the tritiated ligands % Flu” value ([2]; 10 μM, cerebellum) was 90% and the “Inhibition of the tritiated ligands % Flu” value ([2]; 10 μM, cortex) was 75%. For the same compound, the “Inhibition of the tritiated ligands % Flu (100 μM)” value ([2]; cerebellum) was 90%, the “Inhibition of the tritiated ligands % Flu (100 μM)” value ([2]; cortex) was 85% and the Displacement of muscimol ([4]; 10 μM) was 0%. The “Muscimol: stimulation” value ([4]; 100 μM) was 10-20%.
`O=C1C=CC(C2c3ccccc3CCN2C(=O)Cc2ccccc2)O1` (racemic) [Compound 56] was tested, and the “block of the stimulation caused by 20 μM of 164B” value ([1]; 100 μM) was “blocks the stimulation caused by 20 μM of 164B”, the “% stimulation … (100 μM)” value [1] was “+10 ± 17%” and the “Inhibition of the tritiated ligands % Flu” value ([2]; 0.5 μM, cerebellum) was 30%. For the same compound, the “Inhibition of the tritiated ligands % Flu” value ([2]; 0.5 μM, cortex) was 20%, the “Inhibition of the tritiated ligands % Flu” value ([2]; 10 μM, cerebellum) was 80% and the “Inhibition of the tritiated ligands % Flu” value ([2]; 10 μM, cortex) was 70%. The “Inhibition of the tritiated ligands % Flu (100 μM)” value ([2]; cerebellum) was 85%, the “Inhibition of the tritiated ligands % Flu (100 μM)” value ([2]; cortex) was 90% and the Displacement of muscimol ([4]; 100 μM) was 100 μM = 0%.
With `O=C1C=CC(C2c3ccccc3CCN2C(=O)c2ccccc2)O1` (racemic) [Compound 60] the “% stimulation of the GABA currents” value ([1]; 0.1 μM compound) was 0%, the “% stimulation … (100 μM)” value [1] was “+14 ± 13%” and the “Inhibition of the tritiated ligands % Flu” value ([2]; 0.5 μM, cerebellum) was 35%. For the same compound, the “Inhibition of the tritiated ligands % Flu” value ([2]; 0.5 μM, cortex) was 25%, the “Inhibition of the tritiated ligands % Flu” value ([2]; 10 μM, cerebellum) was 90% and the “Inhibition of the tritiated ligands % Flu” value ([2]; 10 μM, cortex) was 80%. The “Inhibition of the tritiated ligands % Flu (100 μM)” value ([2]; tissue not stated) was 90% and the Displacement of muscimol ([4]; 100 μM) was 100 μM = 0%.
For `COc1cc2c(cc1OC)[C@H]([C@@H]1C=CC(=O)O1)N(C(=O)OCc1ccccc1)CC2` (racemic) [Compound 32b, (±)-(1R,2′S)-1-(2,5-Dihydro-5-oxo-2-furyl)-2-N-benzyloxycarbonyl-6,7-dimethoxy-1,2,3,4-tetrahydroisoquinoline], the Displacement of muscimol ([4]; concentration not given) was “Displacement of muscimol = 0%”.
`Cc1ccc(S(=O)(=O)N2CCc3ccccc3C2[C@H]2CCC(=O)O2)cc1` (mixture of isomers) [Compound 67, (±)-(1R,2′R)-1-(2,3,4,5-Tetrahydro-5-oxo-2-furyl)-2-N-p-toluenesulfonyl-1,2,3,4-tetrahydroisoquinoline] was tested, and the “% stimulation of the GABA currents” value ([1]; 0.1 μM compound) was 7 ± 5%, the “% stimulation … (100 μM)” value [1] was “+579 ± 106%” and the “% stimulation … (100 μM)” value ([1]; listed as (+/−) 67) was “+579%”. The “Inhibition of the tritiated ligands % Flu” value ([2]; 10 μM, tissue not stated) was 20%, the “Inhibition of the tritiated ligands % Flu (100 μM)” value ([2]; cerebellum) was 50% and the “Inhibition of the tritiated ligands % Flu (100 μM)” value ([2]; cortex) was 30%. The “Inhibition of the tritiated ligands % Flu” value [5] was 0% and the “Muscimol: stimulation” value ([4]; 100 μM) was “Muscimol: 5-10% stimulation at 100 μM”.
In the case of `COc1cc2c(cc1OC)C(C1CCC(=O)O1)N(C(=O)OCc1ccccc1)CC2` (racemic) [Compound 48, (±)-(1R,2′R)-2-N-Benzyloxycarbonyl-6,7-dimethoxy-1-(2,3,4,5-tetrahydro-5-oxo-2-furyl)-1,2,3,4-tetrahydroisoquinoline], the “% stimulation of the GABA currents” value ([1]; 0.1 μM compound) is reported as 0%, the “% stimulation … (100 μM)” value [1] is reported as “+159 ± 31%” and the “% stimulation … (100 μM)” value ([1]; listed as (+/−) 48) is reported as “+159%”. The inhibition at 100 µM ([2]; tissue not stated) was 35%.
In the case of `COc1cc2c(cc1OC)[C@H]([C@@H]1CCC(=O)O1)NCC2` (racemic) [Compound 27b, (±)-Threo-6,7-dimethoxy-1-(2,3,4,5-tetrahydro-5-oxo-2-furyl)-1,2,3,4-tetrahydroisoquinoline], the “% stimulation of the GABA currents” value ([1]; 200 μM compound) is reported as 200 μM = −6% and the “Inhibition of the tritiated ligands % Flu (100 μM)” value ([2]; tissue not stated) is reported as “negligible”.
For `COc1cc2c(cc1OC)C(C1CCC(=O)O1)N(C)CC2` (racemic) [Compound 28], the “% stimulation of the GABA currents” value ([1]; 200 μM compound) was 200 μM = +2%, the inhibition at 100 µM ([2]; tissue not stated) was 50% and the Ro15-4513 displacement [6] was “Ro15-4513 displacement 100 μM = 50%”.
In the case of `CC1=C[C@@H]([C@H]2c3cc4c(cc3CCN2C)OCO4)OC1=O` (racemic) [Compound 43], the “% stimulation … (100 μM)” value [1] is reported as −7 ± 2%, the inhibition at 100 µM ([2]; tissue not stated) is reported as about 20% and the “Inhibition of the tritiated ligands % TBPS” value ([3]; 10 μM) is reported as 10%. It also gave a Displacement of muscimol ([4]; 0.5 μM) of 30%, a Displacement of muscimol ([4]; 10 μM) of 45% and a Displacement of muscimol ([4]; 100 μM) of 50%.
With `Cc1ccc(S(=O)(=O)N2CCc3ccccc3C2C2CCC(=O)N2)cc1` (racemic) [Compound 73] the “% stimulation … (100 μM)” value [1] was 26 ± 8%.
